US20160046616A1, “NRF2 SMALL MOLECULE INHIBITORS FOR CANCER THERAPY” (THE JOHNS HOPKINS UNIVERSITY, priority 2013, published 2016)
“Also recorded” adds a separate entry of the source.

Key:
[1] = system: pancreatic cancer cells (Panc1); assay: Clonogenic assay in Panc1 pancreatic cancer cells; assay type: cell-based; settings: for Growth of Panc1 cells, combination with gemcitabine: gemcitabine (10 nM in figure legends)
Experimental: (A-B) Panc1 and MiaPaCa cells were treated gemcitabine (10 nM) singly or in combination with compound 1 for 72 h. At the end of treatment, regular growth media was added and cells were further incubated for 8-10 days and stained with crystal violet;
(§1) For the clonogenic assays, 1,000 cells/well were plated in a 6-well plate. The next day, the cells were treated with vehicle (DMSO), Nrf2 inhibitor, a chemotherapeutic drug, or a combination of Nrf2 and chemotherapeutic drugs for 48 hrs. The drug containing media was then replaced with regular growth media and the cells were incubated for an additional 10 days. At the end of incubation period, the colonies were stained with Crystal Violet and imaged.

H460 xenograft tumors = assay: H460 lung cancer xenograft assay (flank); assay type: in vivo, athymic nude mice; settings: for Growth of H460 xenograft tumors, combination with carboplatin / Growth of H460 xenograft tumors, single agent: nude mice
Experimental: For each group, pretreatment available lung volume was defined as 100% and compared with post-treatment lung volumes.
(§2) A549 cells were injected in the flanks of athymic nude mice and once tumor volume reached 50-100 mm^3, treatment was initiated. Vehicle, carboplatin (20 mg/kg; 2 days/week), compound#1 (20 mg/kg 4 days/week) or a combination of compound 1 and carboplatin was administered for four weeks. Values represent tumor volume ±s.e.m. for all groups. […] Tumors were excised and weight at the end of treatment period. […] H460 cells were injected in the flanks of athymic nude mice and once tumor volume reached 50-100 mm^3, treatment was initiated. Vehicle, carboplatin (10 mg/kg; 5 days/week), compound 1 (30 mg/kg 5 days/week) or a combination of compound 1 and carboplatin was administered for three weeks. Values represent tumor volume ±s.e.m.;
For the H460 lung cancer xenograft assay, two million cells in 100 μL of PBS were implanted in the flank of nude mice. One week post cell implantation, when the tumors were about 50 to 100 mm^3 in dimension, the mice were randomly divided into four groups: vehicle, chemotherapeutic drug, Nrf2 inhibitor and chemotherapeutic drug with an Nrf2 inhibitor. The mice were treated with the drugs for 2 to 4 weeks. Tumor volume was recorded biweekly.

A549 lung cancer cells = assay: Clonogenic assay in A549 lung cancer cells; assay type: cell-based; settings: combination with chemotherapeutic drug
Experimental: For the clonogenic assay, exponentially growing cells were counted, diluted, and seeded in triplicate at 1,000 cells/well in a 6-well plate. Cells were incubated for 24 h in a humidified CO2 incubator at 37° C., and exposed to drugs or vehicle for 48 h. The chemotherapeutic drugs, etoposide, cisplatin, or carboplatin were added to some of the samples to see the effect of the drug in the presence and absence of the small inhibitors of Nrf2. After the treatment period, the drug containing media was replaced with complete growth media. To assess clonogenic survival following the drug treatment, A549 cells from a type of non-small cell lung cancer cell line were incubated in complete growth medium at 37° C. for 10-14 days and then stained with 50% methanol-crystal violet solution. Only colonies with more than 50 cells were counted (final concentration of DMSO in the growth media was 0.1%).
as §1

A549 xenograft tumors = assay: A549 lung cancer xenograft assay (flank); assay type: in vivo, athymic nude mice; settings: for A549 tumor weight at end of treatment, combination with carboplatin / A549 tumor weight at end of treatment, single agent: compared to vehicle group; for Growth of A549 xenograft tumors, combination with carboplatin / Growth of A549 xenograft tumors, single agent: nude mice, flank; for Growth of A549 xenograft tumors, single agent / Efficacy of compound alone relative to carboplatin, A549 tumors: single agent
Experimental: A549 cells were injected in the flanks of athymic nude mice and once tumor volume reached 50-100 mm^3, treatment was initiated. Vehicle, carboplatin (5 mg/kg daily Monday to Friday), compound 4 (30 mg/kg daily Monday to Friday) or a combination of compound 4 and carboplatin was administered for three weeks. Values represent tumor volume ±s.e.m. for all groups (A). […] Tumors were excised and weight at the end of treatment period. […] For each group, pretreatment available lung volume was defined as 100% and compared with post-treatment lung volumes. Mice in the vehicle treated group died at 3 weeks;
as §2
A549 cells were injected in the flanks of athymic nude mice and once tumor volume reached 50-100 mm^3, treatment was initiated. Vehicle, carboplatin (10 mg/kg; 5 days/week), compound 3 (60 mg/kg 4 days/week) or a combination of compound 3 and carboplatin was administered for 15 days. Tumor growth was monitored till 28 days. Values represent tumor volume ±s.e.m. for all groups. […] Values represent tumor volume ±s.e.m.;
For the A549 lung cancer xenograft assay, five million cells in 100 μL of PBS were implanted in the flank of nude mice. Two to three weeks post cell implantation, when the tumors were about 50 to 100 mm^3 in dimension, the mice were randomly divided into four groups: vehicle, chemotherapeutic drug, Nrf2 inhibitor, and chemotherapeutic drug with an Nrf2 inhibitor. The mice were treated with the drugs for 2 to 4 weeks. Tumor volume was recorded biweekly.

[2] = system: H838 NRF2-ARE-Fluc stable cell line; assay: H838 Nrf2 assay: NRF2-ARE firefly luciferase reporter gene assay; assay type: cell-based; settings: Homo sapiens, NCI-H838, read-out: Potency of inhibition, H838
Text: H838 is a NSCLC cell line with LOF Keap1 activity and constitutive translocation of NRF2 into the nucleus. A firefly luciferase reporter construct driven by a minimal promoter of NRF2-specific ARE is stably expressed in the H838 cells. This cell line was used as a confirmation assay to make sure hits identified from primary screening and that passed counterscreen assays worked in different cell types with a constitutively active NRF2 pathway (deficiency in Keap1).
This assay was very similar to the primary assay except that the cell line was changed. […] The final concentration of DMSO was maintained at 0.46%. Control compounds Budesonide and Staurosporine were both added at a concentration of 2 mM and Budesonide was also added as a 1:10 titration, starting at 200 μM, to achieve dose-response. After an 18-24 hour incubation at 37° C., 95% humidity, and 5% CO2, 1 μL of 5× CellTiter-Fluor non-lytic cell viability assay reagent (Promega, Madison Wis.) was added into the each well of the plates. The plates were then incubated for 30 minutes at room temperature before they were read on a ViewLux plate imager (Perkin Elmer, Waltham Mass.) using an excitation wavelength of 405 nm and an emission wavelength of 525 nm.
Representative compounds were assayed to assess the potency of inhibition in an A549 NRF2-ARE-Fluc stable cell line (A549 Nrf2 assay), in an H838 NRF2-ARE-Fluc stable cell line (H838 Nrf2 assay), and in an H1437 NRF2-ARE-Fluc stable cell line (H1437 Nrf2 assay) (see Table 3).

osteosarcoma cells = assay: Clonogenic assay in osteosarcoma cells; assay type: cell-based; settings: for Growth of osteosarcoma cells, single agent: single agents
Experimental: as §1

[3] = system: mRNA expression of Nrf2 and its downstream target genes, GCLm and NQO1, A549 cells; assay: Real time RT-PCR of Nrf2 and downstream target genes in A549 cells; assay type: cell-based; settings: for NRF2 signaling, fold change in mRNA by real time RT-PCR / Nrf2 (and GCLm, NQO1) expression, real time PCR based validation: A549 cells; for NRF2 signaling, fold change in mRNA by real time RT-PCR: 48 h (compounds 1, 3), 72 h (compound 4)
Experimental: […] The mRNA expression of Nrf2 and its downstream target genes, GCLm and NQO1 was measured by RT-PCR. (NC means no significant change in gene expression in comparison with vehicle group; M represents the concentration of drug used in the gene expression studies and it is twice the IC50 values generated from primary screening with A549-ARE reporter cell lines).

Row | SMILES | Growth of Panc1 cells, single agent [1] | Growth of Panc1 cells, combination with gemcitabine [1] | Growth of H460 xenograft tumors, combination with carboplatin (H460 xenograft tumors) | Cytotoxicity of chemotherapeutic drugs in combination with the compound, clonogenic assay (A549 lung cancer cells) | A549 tumor weight at end of treatment, combination with carboplatin (A549 xenograft tumors) | A549 tumor weight at end of treatment, single agent (A549 xenograft tumors) | Growth of A549 xenograft tumors, combination with carboplatin (A549 xenograft tumors) | Growth of A549 xenograft tumors, single agent (A549 xenograft tumors) | Efficacy of compound alone relative to carboplatin, A549 tumors (A549 xenograft tumors) | IC50 [2] | Growth of osteosarcoma cells, combination with doxorubicin (osteosarcoma cells) | Growth of osteosarcoma cells, single agent (osteosarcoma cells) | NRF2 signaling, fold change in mRNA by real time RT-PCR [3] | Growth of H460 xenograft tumors, single agent (H460 xenograft tumors; single agent) | Nrf2 (and GCLm, NQO1) expression, real time PCR based validation [3] | other results
1 | O=C(Nc1ncc(Cc2ccc(C(F)(F)F)cc2)s1)c1ccc(-c2cccc([N+](=O)[O-])c2)o1 [Compound 1] | suppressed the growth of two different pancreatic cell lines | enhance the cytotoxicity of gemcitabine; also recorded: potentiates the cytotoxicity of standard care chemotherapy drugs (gemcitabine) | shows anti-tumor efficacy in combination with carboplatin | more effective in combination with a chemotherapeutic drug | significantly reduced tumor weight | significantly reduced tumor weight | showed inhibition of A549 xenograft tumors; also recorded: sensitized A549 lung tumors to carboplatin therapy | showed inhibition of A549 xenograft tumors; also recorded: shows anti-tumor activity as a single agent | comparable to carboplatin | < 5 µM | suppressed the growth of osteosarcoma cells | suppressed the growth of osteosarcoma cells | inhibit NRF2 signaling |  |  | Nrf2, GCLm, and NQO1 gene expression, real time PCR based validation assay ([3]; cell line not given): decrease in Nrf2, GCLm, and NQO1 gene expression
2 | CC1(C)CC2CC(C)(CN2S(=O)(=O)c2ccc(C(=O)Nc3ccc(Cl)c(S(=O)(=O)N4CCOCC4)c3)cc2)C1 (centres unmarked) [compound 3] | suppressed the growth of two different pancreatic cell lines; also recorded: significant growth inhibitory effect as a single agent | enhance the cytotoxicity of gemcitabine | inhibited the growth | enhance the cytotoxicity of standard care chemotherapeutic drugs |  |  | inhibited the growth; also recorded: sensitized A549 lung tumors to carboplatin therapy | inhibited the growth; also recorded: significantly attenuated tumor growth till 28 days | comparable to carboplatin | < 5 µM | suppressed the growth of osteosarcoma cells | suppressed the growth of osteosarcoma cells | inhibit NRF2 signaling | inhibited the growth | inhibit Nrf2 expression | A549 tumor growth at Day 43, 4 weeks from the end of treatment, combination with carboplatin (A549 xenograft tumors; compound 60 mg/kg 4 days/week + carboplatin 10 mg/kg 5 days/week for 15 days): significant growth retardation as compared to group treated with single agent; NQO1 and GCLm expression, real time PCR ([3]; A549 and H1437 cells): Inhibition of NQO1 expression as well as some inhibition of GCLm expression
3 | Cc1ccccc1C(=O)N1CCc2cc(-c3nc(NC(=O)Cc4ccc5c(c4)OCO5)sc3C)ccc21 [compound 4] | suppressed the growth of two different pancreatic cell lines; also recorded: significant growth inhibitory activity as single agent | enhance the cytotoxicity of gemcitabine; also recorded: potentiates the cytotoxicity of standard care chemotherapy drugs (gemcitabine) | sensitized H460 lung tumors to carboplatin drug therapy | more effective in combination with a chemotherapeutic drug; also recorded: potentiates the toxicity of standard care chemotherapy drugs | significantly reduced tumor weight | significantly reduced tumor weight | tumor size and tumor weight was reduced; also recorded: sensitized A549 lung tumors to carboplatin therapy | tumor size and tumor weight was reduced; also recorded: shows anti-tumor activity as a single agent | comparable to carboplatin | 5 to 25 µM | suppressed the growth of osteosarcoma cells | suppressed the growth of osteosarcoma cells | inhibits NRF2 signaling | significant reduction in tumor volume and weight | significant reduction in Nrf2, GCLm, and NQO1 expression | Growth of H460 xenograft tumors, combination with carboplatin (H460 xenograft tumors; listed as ML385): significant reduction in tumor volume and weight; Efficacy of compound alone relative to carboplatin, H460 tumors (H460 xenograft tumors; single agent): comparable to carboplatin; NRF2 and its target genes, time course ([3]; 5 μM): Time dependent reduction in NRF2 and its target genes
